Measurements taken from article PMC10564794, “Safety and tolerability of oral vorolanib for neovascular (wet) age-related macular degeneration: a phase I, open-label study” (Eye, 2023).
“Also recorded” adds a separate entry of the source.

Columns and labels:
[1] = system: oxygen-induced retinopathy mice; parameters: method as in PMID 33610563; settings: cited from earlier work
CNV rat model = system: CNV rat model; parameters: method as in PMID 29201457; settings: oral administration; cited from earlier work
[2] = system: participants with advanced cancer; parameters: method as in PMID 33707933; settings: US participants with advanced cancer, once daily; cited from earlier work
participants with nAMD = assay: Phase I safety and tolerability of oral vorolanib (adverse events, DLT, MTD); assay type: in vivo; settings: for Dose-limiting toxicities (DLT): dose escalation
Experimental: This phase I, open-label study consisting of dose escalation and dose expansion was conducted at 6 Chinese sites (NCT02452385 and CTR20150152). This study was approved by the local institutional review board at each participating site and conducted in accordance with the Declaration of Helsinki. All participants provided written informed consent.
The schedule of procedures is shown in Table S1 in the Supplementary Material. In the dose escalation, participants in each group were assigned to receive ascending doses of vorolanib (25, 50, 75 and 100 mg daily). The dose escalated to the next level in the absence of more than two of eight patients with dose-limiting toxicity (DLT), which was defined as a drug-related safety event during the first cycle (30 days) of treatment that was severe enough to require removal of the participant from the study. The maximum tolerated dose (MTD) was defined as the maximum dose at which no more than two of eight DLTs occurred in the group.
AEs were determined by the investigator per the Common Terminology Criteria for Adverse Events version 4.0.

[3] = system: Caucasian participants with nAMD; settings: cited from earlier work

For `Cc1[nH]c(/C=C2\C(=O)Nc3ccc(F)cc32)c(C)c1C(=O)N[C@H]1CCN(C(=O)N(C)C)C1` [vorolanib, Vorolanib], the “Retinal neovascularization and avascular area in the retina” value [1] is given as “markedly inhibited”, the “CNV lesion area and pathological neovascularization” value (CNV rat model) is given as “strongly repressed CNV; also recorded: reduced the CNV lesion area and pathological neovascularization” and the “Recommended dose of vorolanib monotherapy” value [2] is given as 400 mg. For the same compound, the “TRAE: Elevated ALT” value (participants with nAMD; 25 mg, N = 16) was 3 (18.8%) number of participants (%), the “TRAE: Elevated AST” value (participants with nAMD; 25 mg, N = 16) was 3 (18.8%) number of participants (%) and the “TRAE: Elevated blood pressure” value (participants with nAMD; 25 mg, N = 16) was 4 (25.0%) number of participants (%). The “TRAE: Hair colour changes” value (participants with nAMD; 25 mg, N = 16) was 0 number of participants (%), the “TRAE: Leucopenia” value (participants with nAMD; 25 mg, N = 16) was 1 (6.3%) number of participants (%) and the “TRAE: Neutropenia” value (participants with nAMD; 25 mg, N = 16) was 1 (6.3%) number of participants (%). For the same compound, the “TRAE: QT interval prolongation” value (participants with nAMD; 25 mg, N = 16) was 2 (12.5%) number of participants (%), the “TRAE: Thrombocytopenia” value (participants with nAMD; 25 mg, N = 16) was 2 (12.5%) number of participants (%) and the “TRAE: Elevated ALT” value (participants with nAMD; 50 mg, N = 16) was 9 (56.3%) number of participants (%). The “TRAE: Elevated AST” value (participants with nAMD; 50 mg, N = 16) was 8 (50.0%) number of participants (%), the “TRAE: Elevated blood pressure” value (participants with nAMD; 50 mg, N = 16) was 6 (37.5%) number of participants (%) and the “TRAE: Hair colour changes” value (participants with nAMD; 50 mg, N = 16) was 4 (25.0%) number of participants (%). For the same compound, the “TRAE: Leucopenia” value (participants with nAMD; 50 mg, N = 16) was 3 (18.8%) number of participants (%), the “TRAE: Neutropenia” value (participants with nAMD; 50 mg, N = 16) was 3 (18.8%) number of participants (%) and the “TRAE: QT interval prolongation” value (participants with nAMD; 50 mg, N = 16) was 4 (25.0%) number of participants (%). The “TRAE: Thrombocytopenia” value (participants with nAMD; 50 mg, N = 16) was 1 (6.3%) number of participants (%), the “Dose-limiting toxicities (DLT)” value (participants with nAMD; 75 mg cohort) was “one” and the “TRAE: Elevated ALT” value (participants with nAMD; 75 mg, N = 8) was 5 (62.5%) number of participants (%). The “TRAE: Elevated AST” value (participants with nAMD; 75 mg, N = 8) was 4 (50.0%) number of participants (%), the “TRAE: Elevated blood pressure” value (participants with nAMD; 75 mg, N = 8) was 3 (37.5%) number of participants (%) and the “TRAE: Hair colour changes” value (participants with nAMD; 75 mg, N = 8) was 2 (25.0%) number of participants (%). For the same compound, the “TRAE: Leucopenia” value (participants with nAMD; 75 mg, N = 8) was 3 (37.5%) number of participants (%), the “TRAE: Neutropenia” value (participants with nAMD; 75 mg, N = 8) was 2 (25.0%) number of participants (%) and the “TRAE: QT interval prolongation” value (participants with nAMD; 75 mg, N = 8) was 1 (12.5%) number of participants (%). For the same compound, the “TRAE: Thrombocytopenia” value (participants with nAMD; 75 mg, N = 8) was 3 (37.5%) number of participants (%), the “Dose-limiting toxicities (DLT)” value (participants with nAMD; 100 mg cohort) was “one” and the “TRAE: Elevated blood pressure” value (participants with nAMD; 100 mg, N = 1) was 0 number of participants (%). For the same compound, the “TRAE: Hair colour changes” value (participants with nAMD; 100 mg, N = 1) was 0 number of participants (%), the “TRAE: Leucopenia” value (participants with nAMD; 100 mg, N = 1) was 0 number of participants (%) and the “TRAE: Neutropenia” value (participants with nAMD; 100 mg, N = 1) was 0 number of participants (%). For the same compound, the “TRAE: QT interval prolongation” value (participants with nAMD; 100 mg, N = 1) was 0 number of participants (%), the “TRAE: Thrombocytopenia” value (participants with nAMD; 100 mg, N = 1) was 0 number of participants (%) and the “Drug-related AEs leading to drug discontinuation” value (participants with nAMD; 6 of 41 participants) was 14.6%. The “Fatal TRAEs” value (participants with nAMD; all cohorts) was “No fatal TRAEs”, the “Ocular TRAEs” value (participants with nAMD; all cohorts) was “no ocular TRAEs occurred” and the “Participants with at least one AE” value (participants with nAMD; all cohorts, N = 41) was 39 (95.1%) participants (%). The “Participants with grade 3 or higher TRAEs” value (participants with nAMD; all cohorts, N = 41) was 12 (29.3%) participants (%), the “Participants with treatment-related adverse events (TRAEs)” value (participants with nAMD; all cohorts, N = 41) was 33 (80.5%) participants (%) and the “Elevated alanine aminotransferase (most common nonocular TRAE)” value (participants with nAMD; all participants) was 41.5%. The “Dose-limiting toxicities (DLTs), total” value (participants with nAMD; dose escalation 25–100 mg daily) was “two”, the Maximum tolerated dose (participants with nAMD; oral 25–100 mg daily) was “not reached” and the “Participants with ocular AEs” value ([3]; 4 of 35 participants, none related to vorolanib) was 11.4%. For the same compound, the “Participants with serious AEs” value ([3]; 4 serious AEs in 3 participants, none attributed to vorolanib) was 8.6%, the “Mean BCVA change” value ([3]; at 24 weeks) was “+3.8 letters” and the “Deaths or DLTs” value [3] was “no deaths or DLTs”. For the same compound, the “Systemic AEs” value ([3]; number of events) was 94 and the “Vorolanib-related systemic AEs” value ([3]; of 94 systemic AEs) was 32.
